Here are results for 1 compound from article PMC8952190, “Bromodomain and Extra-Terminal Inhibitor BMS-986158 Reverses Latent HIV-1 Infection In Vitro and Ex Vivo by Increasing CDK9 Phosphorylation and Recruitment” (Pharmaceuticals, 2022).

SMILES strings stand for the structures.

The target of one experiment is BRD4 (Homo sapiens, UniProt O60885). The experiment can be described thus: HTRF binding assay (cell-free, protein and peptide).
The next experiment deals with T1, BRD2 (Homo sapiens, UniProt P25440).
T1 construct: BRD2(1,2)
T1 sequence (P25440 whole entry): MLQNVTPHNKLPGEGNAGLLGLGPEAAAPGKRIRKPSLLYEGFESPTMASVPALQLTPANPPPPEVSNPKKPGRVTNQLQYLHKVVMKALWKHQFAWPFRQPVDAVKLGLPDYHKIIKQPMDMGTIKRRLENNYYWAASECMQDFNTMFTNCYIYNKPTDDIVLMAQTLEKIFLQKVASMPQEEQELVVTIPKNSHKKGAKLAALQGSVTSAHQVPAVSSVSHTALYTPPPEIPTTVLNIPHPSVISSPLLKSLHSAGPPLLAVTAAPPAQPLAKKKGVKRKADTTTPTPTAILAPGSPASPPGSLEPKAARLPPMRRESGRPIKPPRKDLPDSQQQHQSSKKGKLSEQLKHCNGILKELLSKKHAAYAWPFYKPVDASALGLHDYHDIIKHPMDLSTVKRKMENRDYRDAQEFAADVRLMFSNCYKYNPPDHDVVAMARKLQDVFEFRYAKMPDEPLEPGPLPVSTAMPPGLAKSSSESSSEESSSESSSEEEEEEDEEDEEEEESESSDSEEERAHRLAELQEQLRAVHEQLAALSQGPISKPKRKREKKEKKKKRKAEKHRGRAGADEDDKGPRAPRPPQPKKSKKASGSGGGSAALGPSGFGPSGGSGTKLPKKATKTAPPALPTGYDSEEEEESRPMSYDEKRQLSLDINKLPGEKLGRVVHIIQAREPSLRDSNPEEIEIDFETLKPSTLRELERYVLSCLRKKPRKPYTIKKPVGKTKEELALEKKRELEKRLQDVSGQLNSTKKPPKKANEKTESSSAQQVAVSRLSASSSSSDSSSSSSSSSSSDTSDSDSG
The experiment is described as above.

On to `Cc1nnn(C)c1-c1cnc2c3ccc(C(C)(C)O)cc3n([C@H](c3ccccc3)C3CCOCC3)c2c1` [BMS-986158], for which the values for the IC50 on BRD4 and at BRD2 were 2.75 nM and 1.17 nM, respectively.
